Patent US20120046306A1, “Substituted Heteroaryl Spiropyrrolidine MDM2 Antagonists” (priority 2010, published 2012)
pIC50: −log10 of the molar value.

Biological target: interaction between p53 and MDM2 proteins (Homo sapiens, UniProt Q00987)
Assay: HTRF assay of inhibition of p53-MDM2 interaction
Assay type: binding
Conditions: GST-MDM2 and biotinylated p53 peptide, bsa: 0.02%
Description: The ability of the compounds to inhibit the interaction between p53 and MDM2 proteins was measured by an HTRF (homogeneous time-resolved fluorescence) assay in which recombinant GST-tagged MDM2 binds to a peptide that resembles the MDM2-interacting region of p53. Binding of GST-MDM2 protein and p53-peptide (biotinylated on its N-terminal end) is registered by the FRET (fluorescence resonance energy transfer) between Europium (Eu)-labeled anti-GST antibody and streptavidin-conjugated Allophycocyanin (APC).
Add 20 uL streptavidin-APC and Eu-anti-GST antibody mixture (6 nM Eu-anti-GST and 60 nM streptavidin-APC working solution) in TBS buffer with 0.2% BSA, shake at room temperature for 30 minutes and read using a TRF-capable plate reader at
If not specified, the reagents were purchased from Sigma Chemical Co.

Sequence of interaction between p53 and MDM2 proteins (Q00987 whole entry): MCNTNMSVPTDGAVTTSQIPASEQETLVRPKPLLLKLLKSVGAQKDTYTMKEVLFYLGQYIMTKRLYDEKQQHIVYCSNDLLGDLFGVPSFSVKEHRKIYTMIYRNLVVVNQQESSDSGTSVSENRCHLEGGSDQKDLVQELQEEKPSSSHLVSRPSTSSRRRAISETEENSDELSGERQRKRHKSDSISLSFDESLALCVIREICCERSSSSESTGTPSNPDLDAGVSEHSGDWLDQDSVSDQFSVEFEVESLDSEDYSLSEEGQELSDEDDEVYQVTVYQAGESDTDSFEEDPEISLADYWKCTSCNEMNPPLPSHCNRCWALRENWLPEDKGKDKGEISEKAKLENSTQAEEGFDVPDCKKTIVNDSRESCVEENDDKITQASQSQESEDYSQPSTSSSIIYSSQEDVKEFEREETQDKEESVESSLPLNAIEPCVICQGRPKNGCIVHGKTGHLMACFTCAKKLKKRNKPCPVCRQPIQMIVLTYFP

SMILES	pIC50
COC(=O)c1ccc(NC(=O)[C@@H]2N[C@@H](CC(C)(C)C)[C@@]3(C(=O)Nc4cc(F)cnc43)[C@H]2c2cccc(Cl)c2F)c(OC)c1 (racemic) [Example 83, methyl rac-4-((2S,3S,4S,5R)-4-(3-chloro-2-fluorophenyl)-6′-fluoro-2-neopentyl-2′-oxo-1′,2′-dihydrospiro[pyrrolidine-3,3′-pyrrolo[3,2-b]pyridine]-5-ylcarboxamido)-3-methoxybenzoate]	7.71
COc1cc(C(N)=O)ccc1NC(=O)[C@@H]1N[C@@H](CC(C)(C)C)[C@@]2(C(=O)Nc3cc(F)cnc32)[C@H]1c1cccc(Cl)c1F (racemic) [Example 86, rac-(2S,3S,4S,5R)-N-(4-carbamoyl-2-methoxyphenyl)-4-(3-chloro-2-fluorophenyl)-6′-fluoro-2-neopentyl-2′-oxo-1′,2′-dihydrospiro[pyrrolidine-3,3′-pyrrolo[3,2b]pyridine]-5-carboxamide]	7.73
COC(=O)c1ccc(NC(=O)[C@@H]2N[C@@H](CC(C)(C)C)[C@@]3(C(=O)Nc4cc(Cl)sc43)[C@H]2c2cccc(Cl)c2F)c(OC)c1 (racemic) [Example 96, methyl rac-4-((2S,3R,4R,5R)-2′-chloro-4-(3-chloro-2-fluorophenyl)-2-neopentyl-5′-oxo-4′,5′-dihydrospiro[pyrrolidine-3,6′-thieno[3,2-b]pyrrole]-5-ylcarboxamido)-3-methoxybenzoate]	7.64
COC(=O)c1ccc(NC(=O)[C@@H]2N[C@@H](CC(C)(C)C)[C@@]3(C(=O)Nc4cc(OC)ncc43)[C@H]2c2cccc(Cl)c2F)c(OC)c1 (racemic) [Example 110, methyl rac-4-((2S,3R,4S,5R)-4-(3-chloro-2-fluorophenyl)-6′-methoxy-2-neopentyl-2′-oxo-1′,2′-dihydrospiro[pyrrolidine-3,3′-pyrrolo[3,2-c]pyridine]-5-ylcarboxamido)-3-methoxybenzoate]	7.87
COC(=O)c1ccc(NC(=O)[C@@H]2N[C@@H](CC(C)(C)C)[C@@]3(C(=O)Nc4cc(O)ncc43)[C@H]2c2cccc(Cl)c2F)c(OC)c1 (racemic) [Example 113, methyl rac-4-((2S,3R,4S,5R)-4-(3-chloro-2-fluorophenyl)-6′-hydroxy-2-neopentyl-2′-oxo-1′,2′-dihydrospiro[pyrrolidine-3,3′-pyrrolo[3,2-c]pyridine]-5-ylcarboxamido)-3-methoxybenzoate]	< 5.00
COc1cc(C(=O)O)ccc1NC(=O)[C@@H]1N[C@@H](CC(C)(C)C)[C@@]2(C(=O)Nc3cc(O)ncc32)[C@H]1c1cccc(Cl)c1F (racemic) [Example 114, rac-4-((2S,3R,4S,5R)-4-(3-chloro-2-fluorophenyl)-6′-hydroxy-2-neopentyl-2′-oxo-1′,2′-dihydrospiro[pyrrolidine-3,3′-pyrrolo[3,2-c]pyridine]-5-ylcarboxamido)-3-methoxybenzoic acid]	< 5.00
COc1cc2c(cn1)[C@@]1(C(=O)N2)[C@H](CC(C)(C)C)N[C@@H](C(=O)Nc2ccc(C(N)=O)cc2OC)[C@@H]1c1cccc(Cl)c1F (racemic) [Example 115, rac-(2S,3R,4S,5R)-N-(4-carbamoyl-2-methoxyphenyl)-4-(3-chloro-2-fluorophenyl)-6′-methoxy-2-neopentyl-2′-oxo-1′,2′-dihydrospiro[pyrrolidine-3,3′-pyrrolo[3,2-c]pyridine]-5-carboxamide]	6.90
COc1cc(OCCO)ccc1NC(=O)[C@@H]1N[C@@H](CC(C)(C)C)[C@@]2(C(=O)Nc3cc(Cl)ncc32)[C@H]1c1cccc(Cl)c1F (racemic) [Example 117, rac-(2S,3R,4S,5R)-6′-chloro-4-(3-chloro-2-fluorophenyl)-N-(4-(2-hydroxyethoxy)-2-methoxyphenyl)-2-neopentyl-2′-oxo-1′,2′-dihydrospiro[pyrrolidine-3,3′-pyrrolo[3,2-c]pyridine]-5-carboxamide]	7.85
COc1cc(C(=O)O)ccc1NC(=O)[C@@H]1N[C@@H](CC(C)(C)C)[C@@]2(C(=O)Nc3cc(C)ncc32)[C@H]1c1cccc(Cl)c1F (racemic) [Example 120, rac-4-((2S,3R,4S,5R)-4-(3-chloro-2-fluorophenyl)-6′-methyl-2-neopentyl-2′-oxo-1′,2′-dihydrospiro[pyrrolidine-3,3′-pyrrolo[3,2-c]pyridine]-5-ylcarboxamido)-3-methoxybenzoic acid]	7.92
COC(=O)c1ccc(NC(=O)[C@@H]2N[C@@H](CC(C)(C)C)[C@@]3(C(=O)Nc4c(Cl)ccnc43)[C@H]2c2cccc(Cl)c2F)c(OC)c1 (racemic) [Example 123, methyl rac-4-((2S,3S,4S,5R)-7′-chloro-4-(3-chloro-2-fluorophenyl)-2-neopentyl-2′-oxo-1′,2′-dihydrospiro[pyrrolidine-3,3′-pyrrolo[3,2-b]pyridine]-5-ylcarboxamido)-3-methoxybenzoate]	5.20
COc1cc(C(=O)O)ccc1NC(=O)[C@@H]1N[C@@H](CC(C)(C)C)[C@@]2(C(=O)Nc3c(Cl)ccnc32)[C@H]1c1cccc(Cl)c1F (racemic) [Example 124, rac-4-((2S,3S,4S,5R)-7′-chloro-4-(3-chloro-2-fluorophenyl)-2-neopentyl-2′-oxo-1′,2′-dihydrospiro[pyrrolidine-3,3′-pyrrolo[3,2-b]pyridine]-5-ylcarboxamido)-3-methoxybenzoic acid]	5.99

Next, values leading:

pIC50	SMILES
7.93	COc1cc(OCCO)ccc1NC(=O)[C@@H]1N[C@@H](CC(C)(C)C)[C@@]2(C(=O)Nc3nc(Cl)ncc32)[C@H]1c1cccc(Cl)c1F (racemic) [Example 89, rac-(2S,3R,4S,5R)-2′-chloro-4-(3-chloro-2-fluorophenyl)-N-[4-(2-hydroxyethoxy)-2-methoxyphenyl]-2-neopentyl-6′-oxo-6′,7′-dihydrospiro[pyrrolidine-3,5′-pyrrolo[2,3-d]pyrimidine]-5-carboxamide]
7.97	COC(=O)c1ccc(NC(=O)[C@@H]2N[C@@H](CC(C)(C)C)[C@]3(C(=O)Nc4nc(Cl)ncc43)[C@H]2c2cccc(Cl)c2F)c(OC)c1 (racemic) [Example 91, methyl rac-4-{(2S,3S,4S,5R)-2′-chloro-4-(3-chloro-2-fluorophenyl)-2-neopentyl-6′-oxo-6′,7′-dihydrospiro[pyrrolidine-3,5′-pyrrolo[2,3-d]pyrimidine]-5-ylcarboxamido}-3-methoxybenzoate]
8.15	COc1cc2c(cn1)[C@@]1(C(=O)N2)[C@H](CC(C)(C)C)N[C@@H](C(=O)Nc2ccc(C(=O)O)cc2OC)[C@@H]1c1cccc(Cl)c1F (racemic) [Example 111, rac-4-((2S,3R,4S,5R)-4-(3-chloro-2-fluorophenyl)-6′-methoxy-2-neopentyl-2′-oxo-1′,2′-dihydrospiro[pyrrolidine-3,3′-pyrrolo[3,2-c]pyridine]-5-ylcarboxamido)-3-methoxybenzoic acid]
7.92	COc1cc(OCCOC(C)=O)ccc1NC(=O)[C@@H]1N[C@@H](CC(C)(C)C)[C@@]2(C(=O)Nc3cc(Cl)ncc32)[C@H]1c1cccc(Cl)c1F (racemic) [Example 116, rac-2-(4-((2S,3R,4S,5R)-6′-chloro-4-(3-chloro-2-fluorophenyl)-2-neopentyl-2′-oxo-1′,2′-dihydrospiro[pyrrolidine-3,3′-pyrrolo[3,2-c]pyridine]-5-ylcarboxamido)-3-methoxyphenoxy)ethyl acetate]
7.94	COC(=O)c1ccc(NC(=O)[C@@H]2N[C@@H](CC(C)(C)C)[C@@]3(C(=O)Nc4cc(C)ncc43)[C@H]2c2cccc(Cl)c2F)c(OC)c1 (racemic) [Example 119, methyl rac-4-((2S,3R,4S,5R)-4-(3-chloro-2-fluorophenyl)-6′-methyl-2-neopentyl-2′-oxo-1′,2′-dihydrospiro[pyrrolidine-3,3′-pyrrolo[3,2-c]pyridine]-5-ylcarboxamido)-3-methoxybenzoate]
7.93	COc1cc(C(N)=O)ccc1NC(=O)[C@@H]1N[C@@H](CC(C)(C)C)[C@@]2(C(=O)Nc3cc(C)ncc32)[C@H]1c1cccc(Cl)c1F (racemic) [Example 121, rac-(2S,3R,4S,5R)-N-(4-carbamoyl-2-methoxyphenyl)-4-(3-chloro-2-fluorophenyl)-6′-methyl-2-neopentyl-2′-oxo-1′,2′-dihydrospiro[pyrrolidine-3,3′-pyrrolo[3,2-c]pyridine]-5-carboxamide]
8.19	COc1cc(OCCO)ccc1NC(=O)[C@@H]1N[C@@H](CC(C)(C)C)[C@@]2(C(=O)Nc3cc(Cl)cnc32)[C@H]1c1cccc(Cl)c1F [Example 75, (2S,3S,4S,5R)-6′-chloro-4-(3-chloro-2-fluorophenyl)-N-(4-(2-hydroxyethoxy)-2-methoxyphenyl)-2-neopentyl-2′-oxo-1′,2′-dihydrospiro[pyrrolidine-3,3′-pyrrolo[3,2-b]pyridine]-5-carboxamide]
